The values below come from PubChem BioAssay (NCI).

What all share (assay): growth of human tumour cells (NCI), 48 h
For experiment [1], the system named is DLD-1 colon.
For experiment [2], the system named is DMS 114 small cell lung.
Experiment [3] deals with DMS 273 small cell lung.
Experiment [4] concerns HOP-18 NSCLC.
Experiment [5] relates to LXFL 529 NSCLC.
Experiment [6] relates to KM20L2 colon.
In experiment [7] the test system is RXF-631 renal.
In experiment [8] the test system is SNB-78 CNS.
Experiment [9] concerns XF 498 CNS.

The structures appear in SMILES notation.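 48-hour exposure; five concentrations; linearly interpolated endpoints. At the TGI there is no net growth.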

For the molecule `COc1ccc(/C=C2\SC(c3ccc(OC)cc3)N(NC(=O)Cc3ccccc3)C2=O)cc1` (configuration not stated), the TGI in experiment [1], in experiment [2], in experiment [3], in experiment [4] and in [5] was over 100 µM in each case.
Turning to `COc1cc([C@@H]2c3cc4c(cc3[C@@H](NCc3ccccc3)C3COC(=O)[C@@H]32)OCO4)cc(OC)c1O` (some centres not stated), the TGI in [1] is over 100 µM; in experiment [2], over 64.5 µM; in experiment [3], 36.7 µM; in [6] it was 85.6 µM; in experiment [5], over 100 µM; in [7], 30.2 µM. The values for the TGI in experiment [8] and in experiment [9] were over 100 µM and 41 µM, respectively.
On to `COc1ccc2nc(NC(=O)C(=O)C(C(=O)c3ccccc3-c3ccccc3)C3OC(=O)c4ccccc43)sc2c1` (configuration not stated), for which the TGI is 40.9 µM in [1]; 37.2 µM in [2]; 50.1 µM in experiment [6]; 26.3 µM in [5]; 71.6 µM in experiment [7]; over 100 µM in experiment [8]. In [9], this molecule displayed a TGI of 45.7 µM.
As to `Cc1ccc2c(c1)SC(c1cc3c(cc1Br)OCO3)S2` (configuration not stated), the TGI in experiment [1], in experiment [2], in experiment [3], in experiment [4], in [6] and in experiment [5] was over 31.6 µM throughout. Also, the TGI in experiment [8] is over 31.6 µM; in [9] it was over 100 µM.
Consider `CC(=O)OCC1OC(n2c(=O)n(-c3ccccc3)c(=O)c3cc(Br)cc(Br)c32)C(OC(C)=O)C(OC(C)=O)C1OC(C)=O` (configuration not stated), for which the TGI in experiment [1], in experiment [2], in [3], in [4], in [6] and in experiment [5] was over 100 µM each time. Also, the TGI in experiment [7], in experiment [8] and in experiment [9] was over 100 µM in each case.
Take `O=C(CC(=O)Nc1ccccc1O)Nc1ccccc1O`: the TGI is 40.3 µM in experiment [1]; 12.6 µM in experiment [2]; over 100 µM in [3]; 34.2 µM in [4]; over 100 µM in experiment [6]; 63.9 µM in experiment [5]. For the same molecule, the TGI was 49.9 µM in experiment [7] and over 100 µM in experiment [8].
As to `Cc1nc2ccccc2c(=O)n1NC(=S)Nc1cccc(Cl)c1`, the TGI in experiment [1], in [3], in [4] and in experiment [5] was over 100 µM in each case.
On to `CC1=C(C(=O)CC(=O)C(=O)Nc2ccccc2)Sc2ccccc2N1`, for which the TGI in [1], in experiment [2], in experiment [4], in experiment [6], in experiment [5] and in experiment [7] was over 100 µM throughout. For the same molecule, the TGI in experiment [8] and in [9] was over 100 µM throughout.
Take `CCOC(=O)[C@H]1Nc2ccc(Cl)cc2[C@H]2OCC[C@@H]12`: the TGI in experiment [1], in experiment [2], in experiment [3], in [4], in experiment [6] and in experiment [5] was over 100 µM throughout. For the same molecule, the TGI in [7], in experiment [8] and in experiment [9] was over 100 µM throughout.
`CC[N+]1(C)CCC(O)(c2ccccc2)C(C(=O)c2ccccc2)C1` (configuration not stated): the TGI in [1] worked out at 27.2 µM; in [2], 44.3 µM; in [3], 47.1 µM; in experiment [4] it was 31 µM; in [6] it was 44.5 µM; in [5], 23.6 µM.
For the molecule `COc1cc(/C=C/c2ccc(OC(C)=O)cc2)cc(OC)c1OC`, the TGI was over 100 µM in experiment [1]; 94.2 µM in experiment [2]; over 100 µM in experiment [3]; over 100 µM in experiment [4]; over 100 µM in [6]; over 100 µM in experiment [5]. Further, the TGI in [7] and in experiment [8] was over 100 µM each time.
For `CC1(Br)C(=O)NC(=O)N(C2CC(N=[N+]=[N-])C(CO)O2)C1N=[N+]=[N-]` (configuration not stated), the TGI in [1], in [2], in [3], in experiment [6], in experiment [5] and in experiment [7] was over 100 µM throughout. Besides, the TGI in experiment [8] and in [9] was over 100 µM in each case.
`Cc1nc(-c2nc(C)c(C(=O)NN(C)C)s2)sc1C(=O)NN(C)C`: the TGI in [1] was over 100 µM; in experiment [3] it was 38.9 µM; in experiment [4], over 100 µM; in [6], over 100 µM; in experiment [5], over 100 µM; in experiment [8], over 100 µM. Further, the TGI in experiment [9] is over 100 µM.
`Cc1ccc(C2(O)CC(c3ccc([N+](=O)[O-])o3)=NN2C(=O)COc2ccccc2Cl)cc1` (configuration not stated): the TGI in experiment [1] is over 100 µM; in experiment [2], 80.7 µM; in experiment [3], over 100 µM; in [4], over 100 µM; in [6] it was over 60 µM; in experiment [5] it was 49.2 µM. In addition, the values for the TGI in [7], in [8] and in [9] were over 55.1 µM, over 100 µM and over 100 µM, respectively.
With `CCCc1c(C(=O)OCC)[nH]c(-c2ccc(-c3[nH]c(C(=O)OCC)c(CCC)c3C(=O)OCC)o2)c1C(=O)OCC`, the TGI in [1], in experiment [2], in experiment [3], in [4], in experiment [6] and in experiment [5] was over 100 µM in each case. Also, the TGI in experiment [8] and in [9] was over 100 µM each time.
In the case of `COC(=O)c1c2c(c(-c3ccccc3)c3c1-c1nc(Cl)ccc1CC3)CCc1ccc(Cl)nc1-2`, the TGI in experiment [1], in experiment [4], in experiment [6], in [5], in experiment [7] and in experiment [8] was over 100 µM throughout.
On to `COc1cc(C(=O)C/C(CCC(=O)Nc2ccc(Cl)cc2Cl)=N/NC(=O)C(N)=O)ccc1O`, for which the TGI in experiment [1], in experiment [2], in experiment [3], in experiment [4], in experiment [6] and in experiment [5] was over 100 µM throughout. Further, the TGI in experiment [7], in [8] and in [9] was over 100 µM throughout.
